In patent US20260232666A1, “COMPOSITIONS AND METHODS FOR INHIBITION OF RAS” (TheRas, Inc., priority 2023, published 2026):

Columns and labels:
[1] = target: T1, GDP-loaded KRAS4b (amino acids 1-169) G12C/C118S protein (Homo sapiens, UniProt P01116, C118S/G12C); test: Covalent cysteine 12 modification by MALDI-TOF MS, GDP-loaded KRAS G12C; format: binding; conditions: 15 minutes reaction time point
T1 construct: KRAS4b (amino acids 1-169) G12C/C118S protein; made in house
Summary of the method: (§1)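 Percent modification comes from MALDI-TOF peak heights: the compound-adduct peak divided by the sum of the remaining-protein and adduct peaks. Reactions contained 1 μM protein and compound at a 1:2.5 ratio, in pH 7.3 HEPES buffer with NaCl and MgCl2, held 15 min at room temperature.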

[2] = target: T2, GTP-loaded KRAS4b (amino acids 1-169) G12C/C118S protein (Homo sapiens, UniProt P01116, C118S/G12C); test: Covalent cysteine 12 modification by MALDI-TOF MS, GTP-loaded KRAS G12C; format: binding; conditions: 15 minutes reaction time point
T2 construct: KRAS4b (amino acids 1-169) G12C/C118S protein; made in house
Summary of the method: as §1

[3] = target: T3, Avi-KRAS G12C (1-169) GppNHp/RAF1 RBD-3×FLAG (52-151) (Homo sapiens, UniProt P01116, G12C); test: Raf1 RBD-KRAS G12C-GppNHp disruption assay (protein:protein interaction HTRF); format: biochemical
T3 construct: Avi-KRAS G12C (1-169) GppNHp; Avi (N)
Experimental: Biological Example 2: Disrupting KRAS G12C-Effector Binding (Protein: Protein Interaction HTRF Assay)
A protein: protein interaction (PPI) Homogeneous Time Resolved Fluorescence (HTRF) assay was used to determine the effectiveness of compounds of the present disclosure in disrupting KRAS G12C protein and effector (RAF1 Ras Binding Domain (RBD)) binding.
The HTRF assay used the following reagents and proteins: 50 nM Avi-KRAS G12C (1-169) GppNHp/RAF1 RBD-3×FLAG (52-151); 35 nM Avi-PI3K RBD-3×FLAG; Assay Buffer: 50 mM Tris pH 7.5, 100 mM NaCl, 5 mM MgCl2, 0.1% BSA, 0.01% Tween 20, 10% DMSO; Bead Buffer: 50 mM Tris pH 7.5, 0.01% Tween 20; Assay volume: 20 μL (384 well plate-low volume format); and Compound titration: 30-0.02 μM, 3× dilution series.
The HTRF assay employed the following protocol:
Compounds were dispensed in assay plate (384-well, Grenier Bio-One #784075) using Echo (model 555) with dose response settings: 200 nL final volume, titration from 100 μM as a 10-point dilution series. KRAS proteins were prepared in assay buffer, and dispensed on plates, 5 μL per well, then incubated for 1 h at room temperature, with 700 rpm shaking. RAF1 RBD were prepared in assay buffer, dispensed onto plates, 5 μL per well, and then incubated for 1 h at room temperature, with 700 rpm shaking. Reagent mix was then prepared and dispensed on plates, 10 μL per well, and then incubated for 1 h at room temperature, with 700 rpm shaking.
Plates were analyzed on an Envision plate reader using the following setting: Excitation 320 nm, Bandwidth 75 nm; Emission 615 nm, Bandwidth 85 nm; Gain 100%; Flashes 100; Lag 60 μs. Data was reported as percentage of activity, with DMSO as 100%. Data was plotted and analyzed using Prism 8.
The percent of modification of GppNHp, GTP, or GDP loaded KRAS G12C by MALDI-TOF MS, biochemical Raf1 RBD-KRAS G12C-GppNHp disruption assay IC50, and pERK inhibition IC50 of selected compounds described herein are shown in Table 4. For percent of modification at 15 minutes (MALDI-TOF MS) of GppNHp, GTP, or GDP loaded KRAS G12C: A: percent of modification ≥70%; B: 50≤percent of modification <70%; C: 10%≤percent of modification <50%; D: percent of modification <10%. […] For pERK inhibition in H358 cell assay: A: IC50≤0.1 μM; B: 0.1 μM<IC50≤1 μM; C: IC50>1 μM. Blanks in the table represent that compound was not tested in the indicated assay.

| GDP-KRAS G12C percent of modification [1] | GTP-KRAS G12C percent of modification [2] | IC50 [3] [nM] | Compound |
| --- | --- | --- | --- |
| A (percent of modification ≥70%) | C (10%≤percent of modification <50%) | < 500 | C=CC(=O)N1C[C@H](N(C)c2nc(OC[C@@]34CCCN3C[C@H](F)C4)nc3cc(-c4ccc(F)c5sc(N)c(C#N)c45)c(F)cc23)C[C@@H]1C [Compound 109] |
| D (percent of modification <10%) | D (percent of modification <10%) | 500 to 5000 | C=CC(=O)N1C[C@H]2CC[C@@H]1CN2c1nc(OC[C@@]23CCCN2C[C@H](F)C3)nc2c(F)c(-c3ccc(F)c4sc(N)c(C#N)c34)c(C(F)(F)F)cc12 [Compound 36] |
| A (percent of modification ≥70%) | A (percent of modification ≥70%) | < 500 | C=CC(=O)N1CC[C@@H](N(C)c2nc(OC[C@@]34CCCN3C[C@H](F)C4)nc3c(F)c(-c4nc(N)cc(C)c4C(F)(F)F)ccc23)[C@H]1C [Compound 115] |
| A (percent of modification ≥70%) | A (percent of modification ≥70%) | < 500 | C=CC(=O)N1CC[C@@H](N(C)c2nc(OC[C@@H]3C[C@@H](F)CN3CC)nc3c(F)c(-c4ccc(F)c5sc(N)c(C#N)c45)c(C(F)(F)F)cc23)[C@H]1C [Compound 107] |
| A (percent of modification ≥70%) | B (50≤percent of modification <70%) | < 500 | C=CC(=O)N1CC[C@@H](N(CC)c2nc(OC[C@]34CCCN3C[C@H](OC)C4)nc3c(F)c(-c4ccc(F)c5sc(N)c(C#N)c45)c(C(F)(F)F)cc23)[C@H]1C [Compound 158] |
| D (percent of modification <10%) | D (percent of modification <10%) | 500 to 5000 | C=CC(=O)N1C[C@H](N(C)c2nc(OC[C@@]34CCCN3C[C@H](F)C4)nc3c(F)c(-c4ccc(F)c5sc(N)c(C#N)c45)c(C(F)(F)F)cc23)C[C@H]1C (atropisomer, axis not shown) [Compound 177] |
| A (percent of modification ≥70%) | A (percent of modification ≥70%) | < 500 | C=CC(=O)N1CC[C@@H](N(CC)c2nc(OC[C@@H]3C[C@@H](F)CN3C)nc3c(F)c(-c4ccc(F)c5sc(N)c(C#N)c45)c(C(F)(F)F)cc23)[C@H]1C (atropisomer, axis not shown) [Compound 113] |
| C (10%≤percent of modification <50%) | C (10%≤percent of modification <50%) | < 500 | C=CC(=O)N1CC[C@@H](N(C)c2nc(OC[C@@H]3C[C@@H](F)CN3CC)nc3c(F)c(-c4ccc(F)c5sc(N)c(C#N)c45)c(C(F)(F)F)cc23)[C@@H]1C [Compound 144] |
| D (percent of modification <10%) | D (percent of modification <10%) | 500 to 5000 | C=CC(=O)N1CC[C@@H](N(C)c2nc(OC[C@@H]3C[C@@H](OC)CN3C)nc3c(F)c(-c4ccc(F)c5sc(N)c(C#N)c45)c(C(F)(F)F)cc23)[C@H]1C (single isomer, unassigned) [Compound 174] |
| C (10%≤percent of modification <50%) | C (10%≤percent of modification <50%) | < 500 | C=CC(=O)N1CC[C@@H](N(CC)c2nc(OC[C@@]34CCCN3C[C@H](F)C4)nc3c(F)c(-c4ccc(F)c5sc(N)c(C#N)c45)c(Cl)cc23)[C@H]1CC [Compound 20] |
| A (percent of modification ≥70%) | B (50≤percent of modification <70%) | < 500 | C=CC(=O)N1CC[C@@H](N(C)c2nc(OC[C@@]34CCCN3C[C@H](F)C4)nc3cc(-c4nc(N)cc(C)c4C(F)(F)F)c(F)cc23)[C@H]1C [Compound 110] |
| A (percent of modification ≥70%) | A (percent of modification ≥70%) | < 500 | C=CC(=O)N1C[C@H](N(C)c2nc(OC[C@@H]3CCCN3C)nc3c(F)c(-c4ccc(F)c5sc(N)c(C#N)c45)c(C(F)(F)F)cc23)C[C@H]1C [Compound 147] |
| A (percent of modification ≥70%) | B (50≤percent of modification <70%) | < 500 | C=CC(=O)N1CCC(N(CC)c2nc(OC[C@@]34CCCN3C[C@H](F)C4)nc3cc(-c4ccc(F)c5sc(N)c(C#N)c45)c(C#N)cc23)[C@H]1CC (some centres unmarked) [Compound 14] |
| A (percent of modification ≥70%) | A (percent of modification ≥70%) | < 500 | C=CC(=O)N1CC[C@@H](N(C)c2nc(OC[C@@]34CCCN3C[C@H](F)C4)nc3cc(-c4ccc(F)c5sc(N)c(C#N)c45)c(F)cc23)[C@H]1CC [Compound 29] |
| A (percent of modification ≥70%) | A (percent of modification ≥70%) | < 500 | C=CC(=O)N1CC[C@@H](N(CC)c2nc(OC[C@@]34CCCN3C[C@H](OC)C4)nc3c(F)c(-c4ccc(F)c5sc(N)c(C#N)c45)c(Cl)cc23)[C@H]1C [Compound 163] |
| – | B (50≤percent of modification <70%) | < 500 | C=CC(=O)N1CC[C@@H](N(C)c2nc(OC[C@@H]3CCCN3CC)nc3c(F)c(-c4ccc(F)c5sc(N)c(C#N)c45)c(C(F)(F)F)cc23)[C@@H]1C [Compound 30] |
| A (percent of modification ≥70%) | A (percent of modification ≥70%) | < 500 | C=CC(=O)N1C[C@H](N(C)c2nc(OC[C@@H]3CCCN3C)nc3c(F)c(-c4ccc(F)c5sc(N)c(C#N)c45)c(C(F)(F)F)cc23)C[C@@H]1C [Compound 153] |
| B (50≤percent of modification <70%) | B (50≤percent of modification <70%) | < 500 | C=CC(=O)N1CC[C@@H](N(C)c2nc(OC[C@@H]3C[C@@H](OC)CN3C)nc3c(F)c(-c4ccc(F)c5sc(N)c(C#N)c45)c(C(F)(F)F)cc23)[C@@H]1C [Compound 33] |
| A (percent of modification ≥70%) | A (percent of modification ≥70%) | < 500 | C=CC(=O)N1CC[C@@H](N(C)c2nc(OC[C@@H]3CCCN3C)nc3c(F)c(-c4ccc(F)c5sc(N)c(C#N)c45)c(C(F)(F)F)cc23)[C@H]1C (atropisomer, axis not shown) [Compound 131] |
| – | C (10%≤percent of modification <50%) | < 500 | C=CC(=O)N1CC[C@@H](N(C)c2nc(OC[C@@H]3C[C@@H](F)CN3C)nc3c(F)c(-c4ccc(F)c5sc(N)c(C#N)c45)c(C(F)(F)F)cc23)[C@@H]1C [Compound 32] |
| – | A (percent of modification ≥70%) | < 500 | C=CC(=O)N1CC[C@@H](N(C)c2nc(OC[C@@]34CCCN3C[C@H](OC)C4)nc3c(F)c(-c4ccc(F)c5sc(N)c(C#N)c45)c(C(F)(F)F)cc23)[C@H]1C [Compound 151] |
| B (50≤percent of modification <70%) | – | < 500 | C=CC(=O)N1C[C@@H](C)N(c2nc(OC[C@@]34CCCN3C[C@H](F)C4)nc3c(F)c(-c4ccc(F)c5sc(N)c(C#N)c45)c(C(F)(F)F)cc23)C[C@@H]1C [Compound 124] |
